The target of this assay is OfChtI-CAD (Ostrinia furnacalis, UniProt Q2V6H4, E148Q). Kind of assay: isothermal titration calorimetry, single-site model. The settings on record: 50 mM HEPES pH 8.0, 303 K. In kind it is binding. From the text:
isothermal titration calorimetry, single-site model on OfChtI-CAD
Background: ITC needs no label: the signal is the heat of the interaction.

OfChtI-CAD, sequence (Q2V6H4 19-407, stated change not applied): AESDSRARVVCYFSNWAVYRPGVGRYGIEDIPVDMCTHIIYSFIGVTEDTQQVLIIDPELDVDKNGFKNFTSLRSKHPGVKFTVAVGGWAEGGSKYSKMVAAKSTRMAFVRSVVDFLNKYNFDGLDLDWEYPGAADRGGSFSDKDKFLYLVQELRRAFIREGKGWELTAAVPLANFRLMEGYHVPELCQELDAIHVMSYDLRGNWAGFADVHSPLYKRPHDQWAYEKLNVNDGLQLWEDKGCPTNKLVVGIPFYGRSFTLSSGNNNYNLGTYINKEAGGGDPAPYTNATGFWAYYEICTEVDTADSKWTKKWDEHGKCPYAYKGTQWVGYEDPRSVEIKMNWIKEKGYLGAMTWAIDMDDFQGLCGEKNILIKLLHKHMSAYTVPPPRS

The term Kd denotes the constant that tells how readily two partners part at equilibrium. A low value points to tighter binding. `CC(=O)N[C@H]1[C@H](O[C@H]2[C@H](O)[C@@H](NC(C)=O)[C@H](O[C@H]3[C@H](O)[C@@H](NC(C)=O)C(O)O[C@@H]3CO)O[C@@H]2CO)O[C@H](CO)[C@@H](O[C@@H]2O[C@H](CO)[C@@H](O[C@@H]3O[C@H](CO)[C@@H](O[C@@H]4O[C@H](CO)[C@@H](O)[C@H](O)[C@H]4NC(C)=O)[C@H](O)[C@H]3NC(C)=O)[C@H](O)[C@H]2NC(C)=O)[C@@H]1O` (stereo partly drawn) [(GlcNAc)6, N′,N′′,N′′′,N′′′′,N′′′′′, N′′′′′′-hexaacetylchitohexaose] registered a Kd of 480 ± 90 nM.

The compound `CC(=O)N[C@H]1[C@H](O[C@H]2[C@H](O)[C@@H](NC(C)=O)C(O)O[C@@H]2CO)O[C@H](CO)[C@@H](O[C@@H]2O[C@H](CO)[C@@H](O[C@@H]3O[C@H](CO)[C@@H](O)[C@H](O)[C@H]3NC(C)=O)[C@H](O)[C@H]2NC(C)=O)[C@@H]1O` (stereo partly drawn) [(GlcNAc)4] gave a Kd of 11300 ± 1500 nM.

On to `CC(=O)N[C@H]1[C@H](O[C@H]2[C@H](O)[C@@H](NC(C)=O)[C@H](O[C@H]3[C@H](O)[C@@H](NC(C)=O)C(O)O[C@@H]3CO)O[C@@H]2CO)O[C@H](CO)[C@@H](O[C@@H]2O[C@H](CO)[C@@H](O[C@@H]3O[C@H](CO)[C@@H](O)[C@H](O)[C@H]3NC(C)=O)[C@H](O)[C@H]2NC(C)=O)[C@@H]1O` (stereo partly drawn) [(GlcNAc)5], for which binding was characterised by a dissociation constant (Kd) of 2000 ± 200 nM.

For the origin of these results see publication PMC3975886, “Structural characteristics of an insect group I chitinase, an enzyme indispensable to moulting” (Acta Crystallographica Section D: Biological Crystallography, 2014).
